Experimental data: patent US20190175526A1, “METHODS FOR TREATING CANCER” (Macau University of Science and Technology, priority 2017, published 2019)

Assays:
A549 cells = test: MTT cell viability assay, A549 cells; format: cell-based; settings: Homo sapiens, cell line A459 (A549), 72 hours
Method: (§1) Cell lines A549 and H460 were purchased from ATCC and cultivated in RPMI 1640 medium supplemented with 10% FBS (Gibco, Big Cabin, Okla., Me., USA), 1% penicillin-streptomycin solution and maintained at 37° C. in a CO2 incubator with 5% CO2. Compound 3039-0164 was dissolved in DMSO and stored at −40° C. Cells were seeded on a 96-well microplate with 3,000 cells/well, cultured overnight for cell adhesion, and treated with DMSO or various concentrations of compound 3039-0164 for 72 hours. Then, each well was added with 10 μL MTT (5 mg/mL) and incubated for 4 hours at […], followed by adding 100 μL acidic isopropanol (10% SDS and 0.01 mol/L HCl). Finally, an absorbance at 570 nm was measured by a microplate reader (Tecan, Morrisville, N.C., USA). Cell viability was calculated relative to untreated controls, with results based on at least three independent experiments. Two human non-small cell lung cancer (NSCLC) cell lines, A549 and H460, were treated with an increasing concentration (0, 2.5, 5.0, 7.5 and 10.0 μM) of compound 3039-0164 for 72 hours, and then cell viability was determined by MTT assay. As shown in FIG. 2a and FIG. 2b, the cell viability of A549 and H460 were both decreased by compound 3039-0164 in a dose-dependent manner.

PRMT5 = PRMT5 (Homo sapiens, UniProt O14744); test: PRMT5 enzymatic assay (AlphaLISA); format: biochemical; settings: 60 minutes at room temperature, read-out: IC50, PRMT5 enzyme activity
Method: PRMT5 enzymatic assay was carried out by Shanghai ChemPartner Co. (998 Halei Road, Pudong New Area, Shanghai, 201203, China). To measure IC50 values, 10 concentrations of compound 3039-0164 were tested. PRMT5 was purchased from BPS bioscience (Cat. No. 51045), and SAM/SAH were purchased from Sigma. Inc (Cat. No. A7007-100MG and No. A9384-25MG). Compound 3039-0164 was prepared as 10 mM stock in DMSO and diluted to final concentration in DMSO. PRMT5 and substrates were incubated with indicated concentrations of compounds in a 384-well plate for 60 minutes at room temperature. Then, acceptor and donor solutions were added to label the residual substrates of PRMT5. The labeling process lasted for 60 minutes at room temperature, followed by reading endpoint with EnSpire Plate Reader with Alpha mode (PerkinElmer). To investigate the influence of compound 3039-0164 on enzymatic activity and its “on-target” effect, AlphaLISA assay was carried out.

H460 cells = test: MTT cell viability assay, H460 cells; format: cell-based; settings: Homo sapiens, NCI-H460, cell line H460, 72 hours
Method: as §1

Chain of PRMT5 (O14744 2-637 limits assumed): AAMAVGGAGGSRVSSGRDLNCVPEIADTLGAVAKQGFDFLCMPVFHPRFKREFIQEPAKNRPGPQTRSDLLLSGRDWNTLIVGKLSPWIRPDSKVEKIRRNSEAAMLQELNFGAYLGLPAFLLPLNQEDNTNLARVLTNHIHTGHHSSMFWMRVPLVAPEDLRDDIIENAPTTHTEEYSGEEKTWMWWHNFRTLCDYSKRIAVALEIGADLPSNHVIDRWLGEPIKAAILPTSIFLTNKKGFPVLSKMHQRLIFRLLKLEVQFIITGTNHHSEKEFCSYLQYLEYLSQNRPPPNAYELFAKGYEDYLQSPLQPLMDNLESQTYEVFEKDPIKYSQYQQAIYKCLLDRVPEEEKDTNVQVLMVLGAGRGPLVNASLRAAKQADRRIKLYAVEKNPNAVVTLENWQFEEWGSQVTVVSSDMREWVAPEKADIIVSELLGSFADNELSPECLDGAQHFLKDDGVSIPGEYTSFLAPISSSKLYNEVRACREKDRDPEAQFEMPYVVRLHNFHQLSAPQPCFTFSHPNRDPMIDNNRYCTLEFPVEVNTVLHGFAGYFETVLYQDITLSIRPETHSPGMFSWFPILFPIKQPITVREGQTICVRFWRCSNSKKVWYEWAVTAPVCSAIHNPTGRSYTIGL
Chain of PRMT5 (Q9BQA1 2-342 partner limits assumed): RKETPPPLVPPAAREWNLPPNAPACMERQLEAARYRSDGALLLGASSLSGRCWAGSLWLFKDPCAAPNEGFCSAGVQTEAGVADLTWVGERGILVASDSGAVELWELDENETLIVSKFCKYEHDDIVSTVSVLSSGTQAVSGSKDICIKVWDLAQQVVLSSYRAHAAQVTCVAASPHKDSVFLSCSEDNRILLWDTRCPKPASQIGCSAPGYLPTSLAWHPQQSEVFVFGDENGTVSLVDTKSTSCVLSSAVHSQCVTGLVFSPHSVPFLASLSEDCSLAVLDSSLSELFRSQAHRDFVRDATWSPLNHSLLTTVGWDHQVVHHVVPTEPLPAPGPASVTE

SMILES: O=C1c2ccccc2C(=O)c2c(NCCCN(CCO)CCO)cccc21 [compound 3039-0164]
- IC50 (A549 cells): 7.79 ± 1.8 µM
- IC50 (PRMT5): 63.2 ± 4.5 µM
- IC50 (H460 cells): 8.64 ± 1.46 µM
